Laboratory results: patent US20140120595A1 (priority 2008, published 2014)
In brackets after ≈: the same amount, converted by molar mass.

Tested on: E. coli K12
Experiment: microbe, parasite or virus in culture
Settings: Escherichia coli, K12, 24 h, read-out: minimum inhibitory concentration (MIC)
Experimental: Overnight cultures of E. coli K12 were started in 5 mL LB containing no antibiotic 12-16 hours before the experiment was performed. LB broth was inoculated using aseptic technique. The culture was incubated overnight in a shaking incubator at 37 C.
The next morning 10 mL of M9 was inoculated with 100 μL of cells from the overnight culture. The tube was inverted to mix the cells prior to incubation at 37 C in the shaking incubator. While the cells were growing 96 well plates were prepared for inoculation.
A solution of concentrated M9 was made by combining 4 mL of 5×M9 salts, 40 μL of 20% glucose, 40 μL 1M MgSO4, and 2 μL of 1M CaCl2.
The plate was loaded as follows: 45 μL of concentrated M9 mixture was added to each well containing the compound concentrations and the following dilutions were performed:
Controls were prepared and loaded onto the plate as follows: 135 μL of H2O was added to positive control wells. 45 μL of the concentrated M9 mixture was added to each positive control well. 200 μL of water was added to each negative control well.
The OD600 of the cells from the overnight culture that was inoculated into M9 was checked using the spectrophotometer. The final OD600 of the cells was between 0.195 and 0.200. To achieve a final OD within this range the spectrophotometer was blanked with water. […]

Q: With `OCCCCO` [1,4-BDO, 1,4-butanediol] as the compound, how does the MIC read?
A: 50 mg/mL (≈ 555 mM)
